This is an account of results in patent US20150208654A1, “SEED COATING METHODS AND COMPOSITIONS WITH A RYANODINE RECEPTOR BINDING AGENT” (PIONEER HI-BRED INTERNATIONAL, INC., priority 2012, published 2015).

Common to all, as to format: in vivo
The test system of data set [1] is velvetbean caterpillar (VBC) (Anticarsia gemmatalis). The data set is described as follows: Field plot larvae count on soybean grown from treated seeds (area 2). The conditions noted are these: 100 ug ai/seed, compared to untreated. The method, then:
Soybean seeds were treated with chlorantraniliprole at rate of 100 ug ai/seed. The seeds were sown into soil bed fields (area 2) with a size of 8 meters by 8 meters in size, with an area of 64 m2. Plots were replicated 4 times. Evaluation was based on the total number of velvetbean caterpillar (VBC) (Anticarsia gemmatalis) larvae per meter at 37 to 63 days after planting (DAP), and converted to % larvae count reduction compared to the untreated.

Data set [2] has the same test system. The data set is described as follows: Laboratory-field leaf bio-assay (LBF) on leaves of soybean plants grown from treated seeds. The conditions noted are these: seed treatment 120 ug ai/seed, 2nd instar larvae. On the procedure: Soybean seeds were treated with chlorantraniliprole at rates of 120 ug ai/seed. The seeds were sown into soil bed fields with a size of 6 meters in length and 4 rows of 40 cm in width. Leaf samples were collected at the 3rd to the 7th soybean trifoliate growth stage and brought to the laboratory. Laboratory-field leaf bio-assay (LBF) was performed for each soybean growth stage using velvetbean caterpillar (VBC) (Anticarsia gemmatalis) exposing the leaves to 2nd instar larvae stage. Each treatment group was replicated 4 times, and results (Table 2) are expressed as % larval mortality. At 43 days after planting, the VBC larval mortality rate was 88%.

For data set [3] the test system is unchanged. The data set is described as follows: Field plot larvae count on soybean grown from treated seeds (area 1). The conditions noted are these: 100 ug ai/seed, compared to untreated. The method, then: Soybean seeds were treated with chlorantraniliprole at rate of 100 ug ai/seed. The seeds were sown into soil bed fields (area 1) with a size of 8 meters by 8 meters in size, with an area of 64 m2. Plots were replicated 4 times. Evaluation was based on the total number of velvetbean caterpillar (VBC) (Anticarsia gemmatalis) larvae per meter at 37 to 63 days after planting (DAP), and converted to % larvae count reduction compared to the untreated (Table 3). 50 days after planting, the VBC larvae reduction was still 73%, and after 63 days had activity at 35%.

Molecules are shown by their SMILES.

Regarding `CNC(=O)c1cc(Cl)cc(C)c1NC(=O)c1cc(Br)nn1-c1ncccc1Cl` [Chlorantraniliprole, chlorantraniliprole], the “% VBC larvae reduction” value worked out at 25% in data set [1] (37 DAP); 20% in data set [1] (50 DAP); 43% in data set [1] (63 DAP); 20% in data set [3] (37 DAP); 73% in data set [3] (50 DAP); 35% in data set [3] (63 DAP). Further, the “% VBC larval mortality” value in data set [2] (3rd trifoliate, 25 DAP) was 100%; in data set [2] (4th trifoliate, 29 DAP), 94%; in data set [2] (5th trifoliate, 36 DAP), 91%; in data set [2] (7th trifoliate, 43 DAP), 88%.
